# Laboratory results taken from paper PMC5995184, “Potent anti-leukemic activity of a specific cyclin-dependent kinase 9 inhibitor in mouse models of chronic lymphocytic leukemia” (Oncotarget, 2018).
# Columns and labels:
# CDK7-Cyclin H-MAT1 = target: T1, CDK7-Cyclin H-MAT1 (Homo sapiens, UniProt P50613); assay: FRET-based LANCE Ultra in vitro enzymatic kinase assay, CDK7; type: biochemical
# T1 construct: purchased Carna Biosciences
# Method: (§1) IC50 values for CDK inhibitors were determined using the fluorescence resonance energy transfer (FRET)-based LANCE Ultra KinaSelect Ser/Thr kit (Perkin Elmer). Kinase activity and inhibition were measured according to the manufacturer’s instructions and as previously described. […] FRET signals were recorded in a time-resolved manner in a Perkin Elmer EnVision reader. Purified cyclin-kinase pairs were obtained from the following suppliers: Carna Biosciences (CDK1-Cyclin B1, CDK6-Cyclin D3, CDK7-Cyclin H-MAT1), ProQinase (CDK2-Cyclin A) and Invitrogen (CDK9-Cyclin T1).
# (§2) Data were analyzed with GraphPad Prism 7 software. Differences were assessed by unpaired or paired Student t tests if not indicated otherwise. Two-sided probabilities of less than 0.05 were considered significant. Nonlinear regression sigmoidal dose-response curve fit was used to determine the IC50 values and to generate graphs.
# MEC-1 cells = assay: MEC-1 cell line apoptosis, viability, MCL-1/BCL-2 and cell cycle (flow cytometry); type: cell-based
# Method: The MEC-1 cell line was obtained from the DSMZ (Braunschweig, Germany) and was cultured in RPMI (10% fetal bovine serum). A LDC526 stock solution was prepared with DMSO, diluted and added to the cultures to reach the specified concentrations. Samples (percentage of CD19+CD5+ CLL cells >90%) of n=37 CLL patients (Table 1) and n=6 healthy normal donor controls were used for experiments after obtaining informed consent according to institutional guidelines, approved by the Ethics Commission of the University of Essen-Duisburg. Peripheral blood mononuclear cells (PBMC) were isolated using Lymphoprep ([…] Technologies, Cologne, Germany) density gradient centrifugation and were used directly for NSG transplantation or in vitro experiments. Untouched normal donor B cells were isolated with a B cell isolation kit (Miltenyi, Bergisch Gladbach, Germany) according to the manufacturer’s instructions. For in vitro experiments, cells were maintained in RPMI supplemented with 10% fetal bovine serum, penicillin and streptomycin.
# Apoptosis and cell death were determined by using Annexin V (BD Biosciences, Heidelberg, Germany) and 4′,6-Diamidin-2-phenylindol (DAPI, Sigma-Aldrich) staining. Erythrocytes of murine peripheral blood samples were lysed with NH4Cl hypotonic solution. Single cell suspensions of murine spleens were prepared as previously described. Murine cells were stained with antibodies directed against murine CD3 (clone 145-2C11), CD5 (53-7.3) and CD19 (1D3), respectively. For the detection of human cells in NSG spleens antibodies against human CD3 (clone SK7), CD4 (SK3), CD5 (L17F12), CD8 (SK1), CD19 (J3-119 or SJ25C1) and CD45 (2D1) were used (purchased from BD Bioscience, Biolegend and Beckman Coulter). Flow cytometric analysis was carried out on a LSRII flow cytometer (BD Biosciences, Heidelberg, Germany). Flow cytometric data were analyzed with BD FACSDiva or FlowJo software (FLOWJO, LLC, Ashland, OR, USA). Intracellular staining for MCL-1 and BCL-2 (anti-MCL-1 [clone D2W9E, Cell Signaling Technology, Leiden, The Netherlands] and matched isotype control [clone DA1E, Cell Signaling Technology]; anti-BCL-2 [clone Bcl-2/100, BD Bioscience] and matched isotype control [clone MOPC-21, BD Bioscience]) within MEC-1 and primary CLL cells was performed with the FoxP3 / Transcription factor staining buffer set (eBioscience/Thermo Fisher Scientific, Dreieich, Germany) according to the manufacturer’s instructions. Before permeabilization and antibody incubation cells were stained with a fixable viability dye (eFluor 450, eBioscience/Thermo Fisher Scientific). Before adding the anti-MCL-1 and anti-BCL-2 antibodies permeabilized cells were blocked with 2% mouse serum and 2% rabbit serum (Sigma-Aldrich) in permeabilization buffer. Intracellullar murine lymphocyte staining for Bcl-2 was carried out with the BD Cytofix/Cytoperm kit according to the manufacturer’s instructions. A Hamster Anti-mouse Bcl-2 (clone 3F119, BD Biosciences) and a corresponding isotype control (clone A19-3) were used. Dead cells and doublets were excluded by and FSC/SSC gating and positive DAPI or eFluor 450 viability dye staining, respectively. To assess the impact of LDC526 on the cell-cycle status of MEC-1 cells we used the BrdU Flow Kit according to the manufacturer’s protocol (BD Bioscience). […]
# Data were analyzed with GraphPad Prism 7 software. Differences were assessed by unpaired or paired Student t tests if not indicated otherwise. […]
# CDK1-Cyclin B1 = target: T2, CDK1-Cyclin B1 (Homo sapiens, UniProt P06493); assay: FRET-based LANCE Ultra in vitro enzymatic kinase assay, CDK1; type: biochemical
# T2 construct: purchased Carna Biosciences
# Method: as §1, §2
# CDK6-Cyclin D3 [1] = assay: FRET-based LANCE Ultra in vitro enzymatic kinase assay, CDK6; type: biochemical
# Method: as §1, §2
# CDK6-Cyclin D3 [2] = target: T3, CDK6-Cyclin D3 (Homo sapiens, UniProt Q00534); assay: as above; type: biochemical
# T3 construct: purchased Carna Biosciences
# Method: as §1, §2
# T1 sequence (P50613 whole entry): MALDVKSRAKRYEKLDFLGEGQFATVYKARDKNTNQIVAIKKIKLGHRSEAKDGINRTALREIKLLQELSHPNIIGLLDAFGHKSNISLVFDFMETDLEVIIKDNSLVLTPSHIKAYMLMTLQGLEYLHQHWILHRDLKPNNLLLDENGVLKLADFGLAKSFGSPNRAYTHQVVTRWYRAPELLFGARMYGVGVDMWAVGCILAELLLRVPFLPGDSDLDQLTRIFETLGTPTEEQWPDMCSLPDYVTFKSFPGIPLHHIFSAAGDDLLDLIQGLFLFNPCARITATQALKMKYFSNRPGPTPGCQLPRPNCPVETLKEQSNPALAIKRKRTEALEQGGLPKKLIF
# T1 sequence (P51946 whole entry partner): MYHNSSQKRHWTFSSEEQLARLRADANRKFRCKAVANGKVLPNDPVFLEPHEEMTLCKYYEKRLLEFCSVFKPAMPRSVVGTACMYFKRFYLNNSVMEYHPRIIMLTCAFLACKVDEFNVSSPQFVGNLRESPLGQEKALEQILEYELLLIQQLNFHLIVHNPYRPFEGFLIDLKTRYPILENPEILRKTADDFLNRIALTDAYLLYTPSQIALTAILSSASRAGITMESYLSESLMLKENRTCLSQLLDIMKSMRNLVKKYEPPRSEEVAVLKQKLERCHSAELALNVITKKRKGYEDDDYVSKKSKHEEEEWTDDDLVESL
# T1 sequence (P51948 whole entry partner): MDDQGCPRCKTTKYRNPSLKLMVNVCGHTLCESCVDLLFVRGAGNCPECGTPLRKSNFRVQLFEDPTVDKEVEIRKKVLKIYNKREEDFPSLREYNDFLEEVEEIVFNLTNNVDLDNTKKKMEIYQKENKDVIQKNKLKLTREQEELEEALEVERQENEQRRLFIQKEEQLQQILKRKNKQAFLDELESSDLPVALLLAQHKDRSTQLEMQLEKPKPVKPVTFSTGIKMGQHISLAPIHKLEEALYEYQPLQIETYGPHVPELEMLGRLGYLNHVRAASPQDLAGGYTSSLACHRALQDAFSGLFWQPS
# T3 sequence (Q00534 whole entry): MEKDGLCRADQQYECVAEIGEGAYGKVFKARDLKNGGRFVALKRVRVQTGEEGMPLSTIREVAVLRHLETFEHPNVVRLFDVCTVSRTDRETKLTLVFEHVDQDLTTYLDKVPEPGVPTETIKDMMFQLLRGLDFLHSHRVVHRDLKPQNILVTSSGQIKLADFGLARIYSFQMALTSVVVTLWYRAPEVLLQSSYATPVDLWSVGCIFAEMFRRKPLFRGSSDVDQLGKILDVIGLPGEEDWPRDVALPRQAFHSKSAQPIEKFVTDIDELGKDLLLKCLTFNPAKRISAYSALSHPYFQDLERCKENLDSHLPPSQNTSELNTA
# T3 sequence (P30281 whole entry partner): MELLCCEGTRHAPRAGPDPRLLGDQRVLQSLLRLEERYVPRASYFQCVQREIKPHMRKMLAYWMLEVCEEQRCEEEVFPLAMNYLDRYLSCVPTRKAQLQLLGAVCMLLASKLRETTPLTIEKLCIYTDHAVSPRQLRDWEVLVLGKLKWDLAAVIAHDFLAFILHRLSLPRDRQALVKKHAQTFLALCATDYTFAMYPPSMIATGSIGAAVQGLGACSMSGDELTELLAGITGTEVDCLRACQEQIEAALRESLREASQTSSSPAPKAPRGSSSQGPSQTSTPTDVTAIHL
# T2 sequence (P06493 whole entry): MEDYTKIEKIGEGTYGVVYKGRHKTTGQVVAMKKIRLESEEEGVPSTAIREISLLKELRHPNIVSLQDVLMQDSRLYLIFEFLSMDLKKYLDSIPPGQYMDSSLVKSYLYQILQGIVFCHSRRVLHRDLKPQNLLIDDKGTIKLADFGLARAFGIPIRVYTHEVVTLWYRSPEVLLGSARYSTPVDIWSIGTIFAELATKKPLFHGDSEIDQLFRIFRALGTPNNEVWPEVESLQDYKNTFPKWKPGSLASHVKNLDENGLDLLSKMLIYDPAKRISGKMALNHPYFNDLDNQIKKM
# T2 sequence (P14635 whole entry partner): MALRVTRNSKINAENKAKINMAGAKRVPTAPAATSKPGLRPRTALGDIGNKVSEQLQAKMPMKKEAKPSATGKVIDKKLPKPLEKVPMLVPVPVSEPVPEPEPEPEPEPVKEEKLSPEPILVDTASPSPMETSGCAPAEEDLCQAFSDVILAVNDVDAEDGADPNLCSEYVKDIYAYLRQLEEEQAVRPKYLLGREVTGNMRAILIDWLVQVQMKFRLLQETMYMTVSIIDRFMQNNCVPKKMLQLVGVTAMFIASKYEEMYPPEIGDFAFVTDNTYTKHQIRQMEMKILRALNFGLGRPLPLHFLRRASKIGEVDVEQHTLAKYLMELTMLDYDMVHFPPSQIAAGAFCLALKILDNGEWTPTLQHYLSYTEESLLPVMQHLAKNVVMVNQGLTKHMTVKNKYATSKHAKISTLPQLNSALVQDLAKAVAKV
structure (smiles),measurement,setting,value
"COc1cc(F)ccc1-c1ncnc(Nc2cccc(CS(N)(=O)=O)c2)n1 [LDC526, (3-((4-(4-fluoro-2-methoxyphenyl)-1,3,5-triazin-2-yl)amino)phenyl)methane-sulfonamide]",IC50,CDK7-Cyclin H-MAT1,> 10 µM
same,"MEC-1 apoptosis (Annexin V+, DAPI-)","MEC-1 cells; 4 hours, 500 nM and 1 μM",significantly increased MEC-1 apoptosis
same,intracellular MCL-1 protein levels in MEC-1,"MEC-1 cells; 4 hours, increasing concentrations",reduced
same,MEC-1 S-phase entry (BrdU),"MEC-1 cells; 24 hours, 10 μM",significantly decreased
same,MEC-1 cell cycle (BrdU),"MEC-1 cells; 24 hours, concentrations up to 1 μM",did not alter the cell cycle
same,IC50,"MEC-1 cells; Homo sapiens, MEC1, 48 hours incubation, read-out: IC50, MEC-1 absolute viable cell numbers",0.55 µM
same,selectivity versus CDK9 compared to CDK1,CDK1-Cyclin B1,82 fold
same,selectivity versus CDK9 compared to CDK6,CDK6-Cyclin D3 [1],> 900 fold
same,IC50,CDK6-Cyclin D3 [2],> 10 µM
